From patent US20030099613A1, “Viral replicons and viruses dependent on inducing agents” (priority 1999, published 2003)

Tested on: dox-dependent SWS virus
Assay: Sensitivity of HIV-rtTA (SWS) replication to antiretroviral drugs in SupT1 cells
Assay type: cell-based, HIV-1
Conditions: infected SupT1 cells maintained in the presence of dox
Experimental: FIG. 4. Replication of HIV-rtTA can be turned on and turned off. These experiments were performed with the SWS virus, but similar results have been obtained with the other HIV-rtTA variants. The SWS virus was used (2200 ng CA-p24) to infect 6×10^6 SupT1 cells at day 0. […] In panel B, the effect of delayed addition of dox (1000 ng/ml) was analyzed at day 3 after infection. In panel C, the infected cells were grown in 1000 ng/ml dox for 3 days, at which point the cells were washed and incubated in the absence or presence of dox. In panel D, infected cells were maintained in the presence of dox and the effect of the Protease-inhibitor Saquinavir (200 nM) and the RT-inhibitor AZT ([…]) was tested.
As an additional safety test, the sensitivity of the HIV-rtTA virus to antiretroviral drugs that are in current clinical use was analyzed. Because the basic set of viral genes in HIV-rtTA was not altered, including the genes encoding Protease (Pro) and Reverse Transcriptase (RT), these viruses are expected to remain fully sensitive to well-known drugs that target these essential enzymes.

Row | Compound | inhibition of SWS virus replication (AZT 1 μg) | inhibition of SWS virus replication (Saquinavir 200 nM)
1 | Cc1cn([C@H]2C[C@H](N=[N+]=[N-])[C@@H](CO)O2)c(=O)[nH]c1=O [AZT, 3′-azido, 3′-deoxythymidine] | inhibited efficiently | 
2 | CC(C)(C)NC(=O)[C@@H]1C[C@@H]2CCCC[C@@H]2CN1C[C@@H](O)[C@H](Cc1ccccc1)NC(=O)[C@H](CC(N)=O)NC(=O)c1ccc2ccccc2n1 [Saquinavir] |  | inhibited efficiently
